Measured values as given in PubChem BioAssay (NCI).
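Step 1: Grow cells in 96-well plates. Step 2: Expose to compound for 48 hours at 5 concentrations. Step 3: Interpolate endpoints linearly; if unreached, use highest concentration. GI50 is the concentration that inhibits growth by half. The concentration for full growth arrest is given as TGI.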

Legend:
Test in all cases: NCI-60 cell line screen, 48 h
HCC-2998 colon = tested on: HCC-2998 colon
UO-31 renal = tested on: UO-31 renal
UACC-257 melanoma = tested on: UACC-257 melanoma
OVCAR-5 ovarian = tested on: OVCAR-5 ovarian
SK-MEL-28 melanoma = tested on: SK-MEL-28 melanoma
NCI-H522 lung = tested on: NCI-H522 lung
HCT-116 colon = tested on: HCT-116 colon
MALME-3M melanoma = tested on: MALME-3M melanoma
NCI/ADR-RES ovarian = tested on: NCI/ADR-RES ovarian
SR leukemia = tested on: SR leukemia
HL-60(TB) leukemia = tested on: HL-60(TB) leukemia
NCI-H23 lung = tested on: NCI-H23 lung
CAKI-1 renal = tested on: CAKI-1 renal
K-562 leukemia = tested on: K-562 leukemia
SW-620 colon = tested on: SW-620 colon
HT29 colon = tested on: HT29 colon
M14 melanoma = tested on: M14 melanoma
SF-539 CNS = tested on: SF-539 CNS
COLO 205 colon = tested on: COLO 205 colon
HCT-15 colon = tested on: HCT-15 colon
SNB-19 CNS = tested on: SNB-19 CNS
MCF7 breast = tested on: MCF7 breast
SNB-75 CNS = tested on: SNB-75 CNS
MOLT-4 leukemia = tested on: MOLT-4 leukemia
TK-10 renal = tested on: TK-10 renal
MDA-MB-231 breast = tested on: MDA-MB-231 breast
SN12C renal = tested on: SN12C renal
BT-549 breast = tested on: BT-549 breast
U251 CNS = tested on: U251 CNS
SK-MEL-2 melanoma = tested on: SK-MEL-2 melanoma
LOX IMVI melanoma = tested on: LOX IMVI melanoma
MDA-MB-435 = tested on: MDA-MB-435
EKVX NSCLC = tested on: EKVX NSCLC
ACHN renal = tested on: ACHN renal
SK-MEL-5 melanoma = tested on: SK-MEL-5 melanoma
T-47D breast = tested on: T-47D breast
OVCAR-4 ovarian = tested on: OVCAR-4 ovarian
NCI-H226 lung = tested on: NCI-H226 lung
RPMI-8226 leukemia = tested on: RPMI-8226 leukemia
UACC-62 melanoma = tested on: UACC-62 melanoma
786-0 renal = tested on: 786-0 renal
OVCAR-8 ovarian = tested on: OVCAR-8 ovarian
A549 NSCLC = tested on: A549 NSCLC
SF-295 CNS = tested on: SF-295 CNS
PC-3 prostate = tested on: PC-3 prostate
A498 renal = tested on: A498 renal
IGROV1 ovarian = tested on: IGROV1 ovarian
RXF 393 renal = tested on: RXF 393 renal
CCRF-CEM leukemia = tested on: CCRF-CEM leukemia

Q: `Cc1nc2ccccc2c(/C=C/c2ccccc2)c1C(=O)/C=C/c1ccc(C(F)(F)F)cc1` was tested. Which GI50 (HCC-2998 colon) did it give?
A: The GI50 was 1400 nM.

Q: And the TGI (HCC-2998 colon)?
A: The TGI was 2900 nM.

Q: And the GI50 (UO-31 renal)?
A: Its GI50 is 1070 nM.

Q: And the TGI (UO-31 renal)?
A: The TGI was 2260 nM.

Q: And the GI50 (UACC-257 melanoma)?
A: Its GI50 is 1960 nM.

Q: What about the TGI (UACC-257 melanoma) of the same compound?
A: Its TGI is 4250 nM.

Q: And the GI50 (OVCAR-5 ovarian)?
A: Its GI50 is 1930 nM.

Q: And the TGI (OVCAR-5 ovarian)?
A: The TGI was 4450 nM.

Q: And the GI50 (SK-MEL-28 melanoma)?
A: The GI50 was 1740 nM.

Q: And the TGI (SK-MEL-28 melanoma)?
A: Its TGI is 3270 nM.

Q: What about the GI50 (NCI-H522 lung) of the same compound?
A: The GI50 was 1600 nM.

Q: And the TGI (NCI-H522 lung)?
A: Its TGI is 6320 nM.

Q: And the GI50 (HCT-116 colon)?
A: Its GI50 is 226 nM.

Q: And the TGI (HCT-116 colon)?
A: The TGI was 1160 nM.

Q: What about the GI50 (MALME-3M melanoma) of the same compound?
A: Its GI50 is 1710 nM.

Q: And the TGI (MALME-3M melanoma)?
A: The TGI was 3180 nM.

Q: And the GI50 (NCI/ADR-RES ovarian)?
A: Its GI50 is 2190 nM.

Q: What about the TGI (NCI/ADR-RES ovarian) of the same compound?
A: Its TGI is 7190 nM.

Q: And the GI50 (SR leukemia)?
A: The GI50 was 380 nM.

Q: And the TGI (SR leukemia)?
A: The TGI was over 100000 nM.

Q: And the GI50 (HL-60(TB) leukemia)?
A: The GI50 was 1700 nM.

Q: What about the TGI (HL-60(TB) leukemia) of the same compound?
A: Its TGI is 5280 nM.

Q: What about the GI50 (NCI-H23 lung) of the same compound?
A: The GI50 was 1250 nM.

Q: What about the TGI (NCI-H23 lung) of the same compound?
A: Its TGI is 3110 nM.

Q: What about the GI50 (CAKI-1 renal) of the same compound?
A: Its GI50 is 1140 nM.

Q: What about the TGI (CAKI-1 renal) of the same compound?
A: Its TGI is 2440 nM.

Q: What about the GI50 (K-562 leukemia) of the same compound?
A: The GI50 was 775 nM.

Q: What about the TGI (K-562 leukemia) of the same compound?
A: Its TGI is over 100000 nM.

Q: And the GI50 (SW-620 colon)?
A: Its GI50 is 1020 nM.

Q: What about the TGI (SW-620 colon) of the same compound?
A: The TGI was 3490 nM.

Q: And the GI50 (HT29 colon)?
A: Its GI50 is 632 nM.

Q: And the TGI (HT29 colon)?
A: Its TGI is 4460 nM.

Q: And the GI50 (M14 melanoma)?
A: The GI50 was 1600 nM.

Q: And the TGI (M14 melanoma)?
A: Its TGI is 3940 nM.

Q: What about the GI50 (SF-539 CNS) of the same compound?
A: The GI50 was 1820 nM.

Q: What about the TGI (SF-539 CNS) of the same compound?
A: The TGI was 3270 nM.

Q: What about the GI50 (COLO 205 colon) of the same compound?
A: The GI50 was 2130 nM.

Q: And the TGI (COLO 205 colon)?
A: Its TGI is 5400 nM.

Q: What about the GI50 (HCT-15 colon) of the same compound?
A: Its GI50 is 721 nM.

Q: And the TGI (HCT-15 colon)?
A: The TGI was 3280 nM.

Q: And the GI50 (SNB-19 CNS)?
A: The GI50 was 1650 nM.

Q: What about the TGI (SNB-19 CNS) of the same compound?
A: Its TGI is 3050 nM.

Q: And the GI50 (MCF7 breast)?
A: The GI50 was 631 nM.

Q: And the TGI (MCF7 breast)?
A: Its TGI is 2660 nM.

Q: What about the GI50 (SNB-75 CNS) of the same compound?
A: Its GI50 is 1440 nM.

Q: What about the TGI (SNB-75 CNS) of the same compound?
A: Its TGI is 2820 nM.

Q: What about the GI50 (MOLT-4 leukemia) of the same compound?
A: The GI50 was 623 nM.

Q: And the TGI (MOLT-4 leukemia)?
A: Its TGI is over 100000 nM.

Q: What about the GI50 (TK-10 renal) of the same compound?
A: Its GI50 is 2350 nM.

Q: And the TGI (TK-10 renal)?
A: Its TGI is 4040 nM.

Q: What about the GI50 (MDA-MB-231 breast) of the same compound?
A: Its GI50 is 1650 nM.

Q: What about the TGI (MDA-MB-231 breast) of the same compound?
A: The TGI was 3380 nM.

Q: And the GI50 (SN12C renal)?
A: Its GI50 is 1730 nM.

Q: What about the TGI (SN12C renal) of the same compound?
A: The TGI was 4160 nM.

Q: What about the GI50 (BT-549 breast) of the same compound?
A: Its GI50 is 1250 nM.

Q: And the TGI (BT-549 breast)?
A: The TGI was 2890 nM.

Q: What about the GI50 (U251 CNS) of the same compound?
A: The GI50 was 1400 nM.

Q: And the TGI (U251 CNS)?
A: Its TGI is 2950 nM.

Q: What about the GI50 (SK-MEL-2 melanoma) of the same compound?
A: The GI50 was 1870 nM.

Q: What about the TGI (SK-MEL-2 melanoma) of the same compound?
A: Its TGI is 3950 nM.

Q: What about the GI50 (LOX IMVI melanoma) of the same compound?
A: Its GI50 is 1090 nM.

Q: What about the TGI (LOX IMVI melanoma) of the same compound?
A: The TGI was 2340 nM.

Q: What about the GI50 (MDA-MB-435) of the same compound?
A: The GI50 was 1860 nM.

Q: And the TGI (MDA-MB-435)?
A: Its TGI is 3550 nM.

Q: What about the GI50 (EKVX NSCLC) of the same compound?
A: The GI50 was 1560 nM.

Q: And the TGI (EKVX NSCLC)?
A: The TGI was 3110 nM.

Q: What about the GI50 (ACHN renal) of the same compound?
A: The GI50 was 1440 nM.

Q: And the TGI (ACHN renal)?
A: Its TGI is 2750 nM.

Q: And the GI50 (SK-MEL-5 melanoma)?
A: The GI50 was 1730 nM.

Q: And the TGI (SK-MEL-5 melanoma)?
A: The TGI was 3130 nM.

Q: And the GI50 (T-47D breast)?
A: The GI50 was 1180 nM.

Q: And the TGI (T-47D breast)?
A: The TGI was 3880 nM.

Q: What about the GI50 (OVCAR-4 ovarian) of the same compound?
A: The GI50 was 1650 nM.

Q: What about the TGI (OVCAR-4 ovarian) of the same compound?
A: The TGI was 3200 nM.

Q: What about the GI50 (NCI-H226 lung) of the same compound?
A: Its GI50 is 1730 nM.

Q: What about the TGI (NCI-H226 lung) of the same compound?
A: The TGI was 3670 nM.

Q: And the GI50 (RPMI-8226 leukemia)?
A: Its GI50 is 394 nM.

Q: And the TGI (RPMI-8226 leukemia)?
A: The TGI was 3850 nM.

Q: And the GI50 (UACC-62 melanoma)?
A: The GI50 was 1480 nM.

Q: And the TGI (UACC-62 melanoma)?
A: The TGI was 2930 nM.

Q: What about the GI50 (786-0 renal) of the same compound?
A: Its GI50 is 1220 nM.

Q: What about the TGI (786-0 renal) of the same compound?
A: Its TGI is 2710 nM.

Q: And the GI50 (OVCAR-8 ovarian)?
A: The GI50 was 1780 nM.

Q: What about the TGI (OVCAR-8 ovarian) of the same compound?
A: Its TGI is 7980 nM.

Q: And the GI50 (A549 NSCLC)?
A: Its GI50 is 2030 nM.

Q: And the TGI (A549 NSCLC)?
A: The TGI was 4840 nM.

Q: What about the GI50 (SF-295 CNS) of the same compound?
A: Its GI50 is 1670 nM.

Q: What about the TGI (SF-295 CNS) of the same compound?
A: Its TGI is 3100 nM.

Q: What about the GI50 (PC-3 prostate) of the same compound?
A: Its GI50 is 1550 nM.

Q: And the TGI (PC-3 prostate)?
A: The TGI was 5020 nM.

Q: And the GI50 (A498 renal)?
A: Its GI50 is 1750 nM.

Q: And the TGI (A498 renal)?
A: Its TGI is 3180 nM.

Q: And the GI50 (IGROV1 ovarian)?
A: Its GI50 is 414 nM.

Q: And the TGI (IGROV1 ovarian)?
A: The TGI was 2020 nM.

Q: What about the GI50 (RXF 393 renal) of the same compound?
A: The GI50 was 1410 nM.

Q: What about the TGI (RXF 393 renal) of the same compound?
A: The TGI was 3100 nM.

Q: What about the GI50 (CCRF-CEM leukemia) of the same compound?
A: Its GI50 is 381 nM.

Q: And the TGI (CCRF-CEM leukemia)?
A: The TGI was over 100000 nM.
